Results on one molecule are retold here after PMC8387043, “Host Poly(A) Polymerases PAPD5 and PAPD7 Provide Two Layers of Protection That Ensure the Integrity and Stability of Hepatitis B Virus RNA” (Journal of Virology, 2021).

Assay [1] has as its system HBV. Description: Antiviral activity in HBV-infected HepG2-NTCP WT and KO clones. It is filed as cell-based, hepatitis B virus. Particulars: for EC50: Hepatitis B virus, read-out: HBV infection EC50.
The next assay concerns DENV2. Description: Antiviral selectivity panel, CPE in BHK21 cells. As to conditions: Dengue virus, DENV2, BHK-21. Format: cell-based, Dengue virus 2. The method, then:
(§1) HepG2.2.15 (30,000 cells/well) were plated in 96-well collagen-treated plates and incubated at 37°C. Compounds were half-log serially diluted and added in duplicate to 96-well microtiter plates. The plates were incubated for a total duration of 6 days, after which the culture medium was removed for the HBsAg and HBeAg CLIA assays (AutoBio Diagnostics Co., China) performed according to the manufacturer’s instructions. Secreted HBV DNA was extracted (Realtime Ready cell lysis kit; Roche, Mannheim, Germany) and quantified in a qPCR assay (LightCycler 480 SYBR green I master mix; Roche) with the 5′-[…]-3′ (sense) and 5′-[…]-3′ (antisense) primers using the PCR conditions of denaturing at 95°C for 5 min followed by 40 cycles of amplification at 95°C for 15 s and 60°C for 30 s. Antiviral selectivity studies against a panel of different DNA and RNA viruses were performed at ImQuest BioSicences (Frederick, MD, USA). Briefly, test compounds were evaluated using 6 doses, including the highest concentration of 30 μM and five serial half-logarithmic dilutions in triplicate for the antiviral assays.

For assay [2], the system named is HBV. The assay can be described thus: Intracellular HBV pgRNA and sRNA by Northern blotting in HepG2.2.15 cells. Format: cell-based, hepatitis B virus. Particulars: HepG2.2.15, 48 h, 1,000 nM. As to the method: Total cellular RNA was extracted from HepG2.2.15 or HepAD38 cells treated with or without antiviral compounds using TRIzol reagent according to the manufacturer's directions (Thermo Fisher Scientific, Waltham, MA). Northern blotting was performed as described previously ([1]). Briefly, total RNA was separated in a 1.5% agarose gel and transferred onto an Amersham Hybond-XL membrane (product no. GERPN303S; GE Healthcare, IL, USA). Membranes were probed with an [α-^32P]UTP (PerkinElmer, CT, USA)-labeled minus strand-specific full-length HBV riboprobe (3.2 kb) transcribed from plasmid pSP65_HBV(+) DNA. Membranes were exposed to a phosphoimager screen, and the hybridization signals were quantified using Image Studio software (Li-Cor Biosciences, NE, USA).

For assay [3], the system named is HBV RNA poly(A) tails. Description: HBV sRNA poly(A) tail NGS in HepG2-NTCP WT and KO clones.
For assay [4], the system named is HBV. Description: Antiviral assay in HBV-infected HepG2-NTCP cells. It is filed as cell-based. Particulars: Hepatitis B virus.
The subject of assay [5] is HBV RNA poly(A) tails. The assay can be described thus: HBV poly(A) tail length and composition (NGS) in HepAD38 cells. It is filed as cell-based, hepatitis B virus. Particulars: HepAD38, 70 nM. As to the method:
RNA metabolism in most eukaryotic mRNAs employs the 3′ deadenylation pathway in which poly(A) tail shortening is often observed prior to mRNA degradation ([38][–][40]). We therefore determined the HBV poly(A) tail length and composition from HepAD38 cells in the presence or absence of AB-452. To amplify the HBV poly(A) tail, G/I (guanosine and inosine nucleotides) tailing was added to the 3′ ends of mRNA transcripts, and the newly added G/I tails were used as the priming sites to synthesize the cDNA that would be used for amplification of HBV poly(A) tails. The lengths and compositions of the amplicons containing the HBV RNA poly(A) tails were analyzed by next-generation sequencing (PacBio Sequel sequencing platform). […] The poly(A) tails amplified from β-actin cDNAs served as the negative control, which was not affected by the treatment (Fig. 3D).
ACTB GSP primers include 5′-[…] -3′ (sense) and 5′-[…] -3′(antisense). Amplified products were used as loading control. […] Accuracy cutoff default was 0.9.

Another assay deals with HSV-1/HSV-2. The assay can be described thus: Antiviral selectivity panel, CPE in Vero cells. Format: cell-based, herpes simplex virus. As to the method: as §1
Another assay has as its system HIV. Description: Antiviral selectivity panel, CPE in CEM-SS cells. Format: cell-based. As to conditions: Human immunodeficiency virus 1.
The subject of assay [6] is HBV. Description: HBsAg inhibition in PLC/PRF/5 cells. Format: cell-based. As to conditions: Hepatitis B virus. As to the method:
AB-452 and RG7834 both belong to the dihydroquinolizinones chemical class. The antiviral activities of AB-452 and its diastereomer ARB-169451 were evaluated using multiple in vitro HBV replication models, including HepG2.2.15 cells (which constitutively express HBV through the integrated viral genome), PLC/PRF/5 cells (a patient-derived hepatocellular carcinoma cell line only expressing HBsAg), and HBV-infected HepG2-NTCP cells or primary human hepatocytes (PHHs) in which viral replication was dependent on cccDNA transcription (Table 1).
HepG2.2.15, HepAD38, and PLC/PRF/5 cells were cultured in Dulbecco’s modified Eagle medium (DMEM)/F12 medium (Corning, NY, USA), supplemented with 10% fetal bovine serum (Gemini, CA, USA), 100 U/ml penicillin, and 100 μg/ml streptomycin. Huh-7 cells (Creative Bioarray, NY, USA) were cultured in RPMI 1640 medium (Basel, Switzerland) containing 10% fetal bovine serum, 100 U/ml penicillin, and 100 μg/ml streptomycin. HepG2-hNTCP-C4 cells were cultured in DMEM medium (Gibco, MA, USA) containing 10% fetal bovine serum and 10 mM HEPES (Gibco).

The test system of the next assay is HCV. Description: Antiviral selectivity panel, luciferase in Huh-7 cells. It is filed as cell-based. As to conditions: Hepatitis C virus; Huh-7, Luciferase.

Structures are written as SMILES.

As a reminder, the EC50 is the concentration needed to bring the measured effect to its halfway point. As to `COCCCOc1cc2c(nc1OC)-c1cc(=O)c(C(=O)O)cn1[C@H](C(C)C)C2` [AB-452], the EC50 in the assay with HBV [1] (P5_KO (T3-4)) is 37.7 ± 8.3 nM; in the assay on HBV [1] (P5_KO (T3-15)), 39.3 ± 3.2 nM; in the assay with HBV [1] (P7_KO (T2-8)), 3.8 ± 1.5 nM; with HBV [1] (T222, P7_KO (T2-22)) it was 3.2 ± 1.9 nM; in the assay with HBV [1] (WT (parent) HepG2-NTCP), 2.7 ± 1.8 nM; in the assay with DENV2, > 30000 nM. The concentration giving a half-maximal response (EC50) was 4 ± 2.3 nM with HBV [4] (read-out: HBeAg EC50); 6.8 ± 1.8 nM with HBV [4] (read-out: HBsAg EC50); > 30000 nM in the assay on HSV-1/HSV-2; > 30000 nM with HIV; 2.3 ± 0.36 nM in the assay on HBV [6]; > 30000 nM in the assay on HCV. Besides, the “HBV infection FC vs WT” value came to 14.0 in the assay with HBV [1] (P5_KO (T3-4)); 14.6 in the assay on HBV [1] (P5_KO (T3-15)); 1.4 with HBV [1] (P7_KO (T2-8)); 1.2 in the assay with HBV [1] (P7_KO (T2-22)); 1 in the assay with HBV [1] (WT (parent)). Besides, the “sRNA (%) of untreated controls” value in the assay with HBV [2] was ~18%. Also, the “poly(A) tail length after treatment” value in the assay with HBV RNA poly(A) tails [3] (WT and P7_KO cells, untreated >136 bp) is recorded as ~60 bp. For the same molecule, the “guanylation frequency of sRNA after treatment” value in the assay on HBV RNA poly(A) tails [3] (WT and P7_KO cells, untreated ∼50%) is ~10%. In the assay with HBV RNA poly(A) tails [3] (Z14_KO and PAPD5/7_DKO cells, with and without AB-452), the guanosine incorporation is ~10%. The “average HBV RNA poly(A) tail length” value with HBV RNA poly(A) tails [5] (4 h, untreated around 100) is recorded as 58 nucleotides. Besides, the “fraction of poly(A) tails containing internal G” value in the assay on HBV RNA poly(A) tails [5] (untreated 64%) is 25%.
